From patent publication US20180201609A1 (AURIGENE DISCOVERY TECHNOLOGIES LIMITED, priority 2015, published 2018)
Structures can show the parent of a compound that is named as a salt.

Biological target: T1, IRAK-4 enzyme (Homo sapiens, UniProt Q9NWZ3)
T1 construct: purchased Millipore, USA
T1 sequence (Q9NWZ3 1-460): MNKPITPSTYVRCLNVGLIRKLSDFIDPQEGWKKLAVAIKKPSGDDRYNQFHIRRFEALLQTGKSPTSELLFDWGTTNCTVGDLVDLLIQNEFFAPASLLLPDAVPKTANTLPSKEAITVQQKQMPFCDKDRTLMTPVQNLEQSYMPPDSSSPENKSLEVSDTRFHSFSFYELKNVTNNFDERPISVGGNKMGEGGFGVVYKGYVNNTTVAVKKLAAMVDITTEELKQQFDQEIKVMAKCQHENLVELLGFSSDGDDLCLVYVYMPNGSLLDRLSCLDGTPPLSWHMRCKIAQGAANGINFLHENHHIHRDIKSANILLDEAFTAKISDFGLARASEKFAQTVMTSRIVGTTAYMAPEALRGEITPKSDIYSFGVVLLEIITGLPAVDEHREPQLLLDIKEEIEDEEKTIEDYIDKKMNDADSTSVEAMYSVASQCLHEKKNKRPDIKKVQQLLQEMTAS
Assay: IRAK-4 Biochemical Assay (TR-FRET)
Conditions: recombinant IRAK-4 kinase, 20 μM ATP; for inhibition at 0.1 µM: 0.1 μM compound; for inhibition at 1 µM: 1 μM compound
Description: Compounds were tested for their potential to inhibit IRAK-4 enzyme in a TR-FRET assay using recombinant IRAK-4 kinase from Millipore, USA. The assay buffer was 50 mM Tris-HCl pH 7.5, 20 mM MgCl2, 1 mM EGTA, 2 mM DTT, 3 mM MnCl2 and 0.01% Tween 20.5 ng of IRAK-4 kinase was used for the assay. After pre-incubation of enzyme with test compound for 30 minutes at room temperature, a substrate mixture containing 100 nM Biotin Histone H3 (Millipore, USA) and 20 μM ATP (Sigma, USA) was added and the reaction was incubated for 30 min. Post incubation, the reaction was stopped by the addition of stop mix containing 40 mM EDTA, 1 nM of Europium-Anti-Phospho-Histone H3 (Ser10) antibody (Perkin Elmer, USA) and 20 nM SureLight Allophycocyanin-Streptavidin (Perkin Elmer, USA). The fluorescence emission at 615 nm and 665 nm were measured at an excitation of 340 nm and the percent inhibition was estimated from the ratio of the fluorescence intensities [(F665/F615)×10000].
The compounds of the present invention were screened in the above mentioned assay and the percent inhibition data is summarized in the Table 1.

| inhibition at 0.1 µM [%] | inhibition at 1 µM [%] | SMILES |
| --- | --- | --- |
| 95 | 96 | C=CCOCC1CCN(c2cc3c(cc2NC(=O)c2coc(-c4ccnc(N)c4)n2)c(C)nn3C)CC1 [Example 12, N-(6-(4-((allyloxy)methyl)piperidin-1-yl)-1,3-dimethyl-1H-indazol-5-yl)-2-(2-aminopyridin-4-yl)oxazole-4-carboxamide] |
| 98 | 99 | Cc1cc(-c2nc(C(=O)Nc3cc4cn(C)nc4nc3N3CCCCC3)co2)ccn1 [Example 13, N-(2-methyl-6-(piperidin-1-yl)-2H-pyrazolo[3,4-b]pyridin-5-yl)-2-(2-methylpyridin-4-yl)oxazole-4-carboxamide hydrochloride] |
| 57 | 94 | Cn1cc2cc(NC(=O)c3cccc(N4CC[C@H](O)C4)n3)c(N3CCCCC3)nc2n1 [Example 14, (S)-6-(3-hydroxypyrrolidin-1-yl)-N-(2-methyl-6-(piperidin-1-yl)-2H-pyrazolo[3,4-b]pyridin-5-yl)picolinamide] |
| 34 | 78 | Cn1cc2cc(NC(=O)c3cccc(N4CC[C@H](N)C4)n3)c(N3CCCCC3)nc2n1 [Example 15, (S)-6-(3-aminopyrrolidin-1-yl)-N-(2-methyl-6-(piperidin-1-yl)-2H-pyrazolo[3,4-b]pyridin-5-yl)picolinamide] |
| 99 | 99 | Cc1cc(-c2nc(C(=O)Nc3cc4cnn(C)c4nc3N3CCCCC3)co2)ccn1 [Example 16, N-(1-methyl-6-(piperidin-1-yl)-1H-pyrazolo[3,4-b]pyridin-5-yl)-2-(2-methylpyridin-4-yl)oxazole-4-carboxamide] |
|  | 90 | Cn1cc2cc(NC(=O)c3coc(N4CC[C@H](N)C4)n3)c(N3CCCCC3)nc2n1 [Example 17, (S)-2-(3-aminopyrrolidin-1-yl)-N-(2-methyl-6-(piperidin-1-yl)-2H-pyrazolo[3,4-b]pyridin-5-yl)oxazole-4-carboxamide] |
|  | 93 | Cn1cc2cc(NC(=O)c3coc(N4CC[C@H](O)C4)n3)c(N3CCCCC3)nc2n1 [Example 18, (S)-2-(3-hydroxypyrrolidin-1-yl)-N-(2-methyl-6-(piperidin-1-yl)-2H-pyrazolo[3,4-b]pyridin-5-yl)oxazole-4-carboxamide] |
|  | 96 | C[C@H](O)Cn1cc(-c2cccc(C(=O)Nc3cc4cn(C)nc4nc3N3CCCCC3)n2)cn1 [Example 19, (S)-6-(1-(2-hydroxypropyl)-1H-pyrazol-4-yl)-N-(2-methyl-6-(piperidin-1-yl)-2H-pyrazolo[3,4-b]pyridin-5-yl)picolinamide] |
|  | 72 | Cc1cnccc1-c1nc(C(=O)Nc2cc3cn(C)nc3nc2N2CC[C@H](O)C2)co1 [Example 20, (S)—N-(6-(3-hydroxypyrrolidin-1-yl)-2-methyl-2H-pyrazolo[3,4-b]pyridin-5-yl)-2-(3-methylpyridin-4-yl)oxazole-4-carboxamide] |
|  | 89 | Cc1cc(-c2nc(C(=O)Nc3cc4cn(C)nc4nc3N3CC[C@H](O)C3)co2)ccn1 [Example 21, (S)—N-(6-(3-hydroxypyrrolidin-1-yl)-2-methyl-2H-pyrazolo[3,4-b]pyridin-5-yl)-2-(2-methylpyridin-4-yl)oxazole-4-carboxamide] |
|  | 65 | Cn1cc2cc(NC(=O)c3coc(N4CC[C@H](O)C4)n3)c(C3CC3)nc2n1 [Example 22, (S)—N-(6-cyclopropyl-2-methyl-2H-pyrazolo[3,4-b]pyridin-5-yl)-2-(3-hydroxypyrrolidin-1-yl)oxazole-4-carboxamide] |
|  | 33 | Cc1cc(-c2nc(C(=O)Nc3cc4cnn(C)c4nc3N3CC[C@H](O)C3)co2)ccn1 [Example 23, (S)—N-(6-(3-hydroxypyrrolidin-1-yl)-1-methyl-1H-pyrazolo[3,4-b]pyridin-5-yl)-2-(2-methylpyridin-4-yl)oxazole-4-carboxamide] |
| 99 | 99 | Cn1cc2cc(NC(=O)c3coc(-c4ccnc(N)c4)n3)c(N3CCCCC3)nc2n1 [Example 24] |
| 67 | 97 | COCCn1ncc2cc(NC(=O)c3coc(-c4ccnc(C)c4)n3)c(N3CCC(O)CC3)nc21 [Example 25, N-(6-(4-hydroxypiperidin-1-yl)-1-(2-methoxyethyl)-1H-pyrazolo[3,4-b]pyridin-5-yl)-2-(2-methylpyridin-4-yl)oxazole-4-carboxamide] |
| 94 | 97 | Cc1cc(-c2nc(C(=O)Nc3cc4c(C)n(C)nc4nc3N3CCCCC3)co2)ccn1 [Example 26, N-(2,3-dimethyl-6-(piperidin-1-yl)-2H-pyrazolo[3,4-b]pyridin-5-yl)-2-(2-methylpyridin-4-yl)oxazole-4-carboxamide] |
| 97 | 98 | Cc1c2cc(NC(=O)c3coc(-c4ccnc(N)c4)n3)c(N3CCCCC3)nc2nn1C [Example 27, 2-(2-aminopyridin-4-yl)-N-(2,3-dimethyl-6-(piperidin-1-yl)-2H-pyrazolo[3,4-b]pyridin-5-yl)oxazole-4-carboxamide] |
| 89 | 97 | Cc1cc(-c2nc(C(=O)Nc3cc4c(C)nn(C)c4nc3N3CCC(CO)CC3)co2)ccn1 [Example 28, N-(6-(4-(hydroxymethyl)piperidin-1-yl)-1,3-dimethyl-1H-pyrazolo[3,4-b]pyridin-5-yl)-2-(2-methylpyridin-4-yl)oxazole-4-carboxamide] |
| 97 | 99 | Cc1nn(C)c2nc(N3CCC(CO)CC3)c(NC(=O)c3coc(-c4ccnc(N)c4)n3)cc12 [Example 29, 2-(2-aminopyridin-4-yl)-N-(6-(4-(hydroxymethyl)piperidin-1-yl)-1,3-dimethyl-1H-pyrazolo[3,4-b]pyridin-5-yl)oxazole-4-carboxamide] |
| 86 | 99 | COCCn1nc(C)c2cc(NC(=O)c3coc(-c4ccnc(N)c4)n3)c(N3CCC(CO)CC3)nc21 [Example 30, 2-(2-aminopyridin-4-yl)-N-(6-(4-(hydroxymethyl)piperidin-1-yl)-1-(2-methoxyethyl)-3-methyl-1H-pyrazolo[3,4-b]pyridin-5-yl)oxazole-4-carboxamide] |
| 99 | 99 | CN1CCN(CCn2ncc3cc(NC(=O)c4coc(-c5ccnc(N)c5)n4)c(N4CCC(O)CC4)cc32)CC1 [Example 31, 2-(2-aminopyridin-4-yl)-N-(6-(4-hydroxypiperidin-1-yl)-1-(2-(4-methylpiperazin-1-yl)ethyl)-1H-indazol-5-yl)oxazole-4-carboxamide hydrochloride] |
| 19 | 80 | O=C(Nc1cc2cnn(C3CCNCC3)c2cc1C1CC1)c1cccc(N2CCC(O)C2)n1 (stereo not drawn) [Example 32, N-(6-cyclopropyl-1-(piperidin-4-yl)-1H-indazol-5-yl)-6-(3-hydroxypyrrolidin-1-yl)picolinamide hydrochloride] |
| 43 | 81 | Cn1ncc2cc(NC(=O)c3cccc(N4CCC(O)C4)n3)c(N3CCCCC3)cc21 (stereo not drawn) [Example 33, 6-(3-hydroxypyrrolidin-1-yl)-N-(1-methy-6-(piperidin-1-yl)-1H-indazol-5-yl)picolinamide] |
| 25 | 46 | C=CCOCC1CCN(c2cc3c(cc2NC(=O)c2coc(-c4cccc(N)n4)n2)c(C)nn3C)CC1 [Example 34] |
| 95 | 96 | CCOCC1CCN(c2cc3c(cc2NC(=O)c2coc(-c4ccnc(N)c4)n2)c(C)nn3C)CC1 [Example 35, 2-(2-aminopyridin-4-yl)-N-(6-(4-(ethoxymethyl)piperidin-1-yl)-1,3-dimethyl-1H-indazol-5-yl)oxazole-4-carboxamide] |
| 81 | 85 | Cc1nn(C)c2cc(N3CCC(COCC4CC4)CC3)c(NC(=O)c3coc(-c4ccnc(N)c4)n3)cc12 [Example 36, 2-(2-aminopyridin-4-yl)-N-(6-(4-((cyclopropylmethoxy)methyl)piperidin-1-yl)-1,3-dimethyl-1H-indazol-5-yl)oxazole-4-carboxamide] |
| 14 | 75 | Cc1nn(C)c2cc(N3CCC(CO)CC3)c(NC(=O)c3cccc(-c4ccc(N)nc4)n3)cc12 [Example 37, 6′-amino-N-(6-(4-(hydroxymethyl)piperidin-1-yl)-1,3-dimethyl-1H-indazol-5-yl)-[2,3′-bipyridine]-6-carboxamide hydrochloride] |
